{
  "source": "paper PMC8087101",
  "about": "“Human parvovirus B19 interacts with globoside under acidic conditions as an essential step in endocytic trafficking” (PLoS Pathogens, 2021)",
  "biological_target": "T1, B19V (native virus capsid) (Human parvovirus B19 strain HV, UniProt Q9PZT0)",
  "T1 construct": "gene vp; icosahedral capsid of 60 VP1 and VP2 proteins; with Minor capsid protein VP1",
  "experiment": "hemagglutination inhibition of human red blood cells by soluble Gb4; binding to cells also by qPCR",
  "format": "cell-based",
  "settings": "pH 6.3, PiBS, room temperature; ceramide of natural source (Matreya), in DMSO; Gb3 as control lipid",
  "data": [
    {"substance": "globoside [Gb4]", "values": [
      {"measurement": "hemagglutination inhibition, effective concentration", "result": "0.2 to 0.4", "unit": "µM"}
    ]}
  ]
}
